ChEMBL document CHEMBL1157280, “Immunomodulatory principles of Dichrocephala bicolor” (J Nat Prod, 1999)
In brackets after ≈: the same amount, converted by molar mass. Activity calls are given as the source filed them. No cut-off for these calls is given here.

Legend:
[1] = organism: Homo sapiens; assay: Induction of resting HMNC proliferation assessed as [3H]thymidine uptake at 10 ug/mL after 3 days by lymphoproliferation test relative to control; format: functional
[2] = organism: Homo sapiens; assay: Induction of phytohemagglutininin-activated HMNC proliferation assessed as [3H]thymidine uptake at 10 ug/mL after 3 days by lymphoproliferation test relative to control; format: functional
[3] = Induction of phytohemagglutininin-activated HMNC proliferation assessed as [3H]thymidine uptake after 3 days by lymphoproliferation test; format: functional, Homo sapiens
[4] = Induction of resting HMNC proliferation assessed as [3H]thymidine uptake after 3 days by lymphoproliferation test; format: functional, Homo sapiens
[5] = organism: Homo sapiens; assay: Immunomodulatory activity in resting HMNC assessed as IFN-gamma production at 10 ug/mL after 3 days by EIA realtive to control; format: functional
[6] = organism: Homo sapiens; assay: Immunomodulatory activity in phytochemagglutininin-stimulatedHMNC assessed as IFN-gamma production at 10 ug/mL after 3 days by EIA realtive to control; format: functional
[7] = (§1) Immunomodulatory activity in phytochemagglutininin-stimulatedHMNC assessed as IFN-gamma production after 3 days by EIA; format: functional, Homo sapiens
[8] = organism: Homo sapiens; assay: as §1; format: functional
[9] = (§2) Immunomodulatory activity in resting HMNC assessed as IFN-gamma production after 3 days by EIA; format: functional, Homo sapiens
[10] = organism: Homo sapiens; assay: as §2; format: functional

Row | Structure (SMILES) | Activity [1] | Activity [2] | EC50 [3] [µg/mL] | EC50 [4] [µg/mL] | Activity [5] | Activity [6] | EC50 [7] [µg/mL] | Activity [8] | EC50 [9] [µg/mL] | Activity [10]
1 | O=C(/C=C/c1ccc(O)c(O)c1)O[C@@H]1[C@@H](OC(=O)/C=C/c2ccc(O)c(O)c2)C[C@@](O)(C(=O)O)C[C@@H]1O | inactive | inactive |  |  |  |  |  |  |  | 
2 | O=C(/C=C/c1ccc(O)c(O)c1)O[C@@H]1C[C@](O)(C(=O)O)C[C@@H](OC(=O)/C=C/c2ccc(O)c(O)c2)[C@H]1O | inactive | inactive |  |  |  |  |  |  |  | 
3 | COC(=O)[C@]1(O)C[C@H](OC(=O)/C=C/c2ccc(O)c(O)c2)[C@@H](O)[C@@H](OC(=O)/C=C/c2ccc(O)c(O)c2)C1 | inactive | inactive |  |  |  |  |  |  |  | 
4 | C[C@@H]1O[C@@H](OC[C@H]2O[C@@H](Oc3c(-c4ccc(O)c(O)c4)oc4cc(O)cc(O)c4c3=O)[C@H](O)[C@@H](O)[C@@H]2O)[C@H](O)[C@H](O)[C@H]1O | inactive | inactive |  |  |  |  |  |  |  | 
5 | CCOC(=O)[C@]1(O)C[C@H](OC(=O)/C=C/c2ccc(O)c(O)c2)[C@@H](OC(=O)/C=C/c2ccc(O)c(O)c2)[C@@H](O)C1 | inactive | inactive |  |  |  |  |  |  |  | 
6 | O=C(/C=C/c1ccc(O)c(O)c1)O[C@@H]1C[C@](O)(C(=O)O)C[C@@H](O)[C@H]1O [CHLOROGENIC ACID] | 910 cpm | 97.9% | 4.9 (≈ 13.8 µM) | 1.54 (≈ 4.35 µM) | 38.5 pg/mL | Active | 2.8 (≈ 7.9 µM) | Dose-dependent effect | 3.9 (≈ 11 µM) | Dose-dependent effect
7 | O=C(/C=C/c1ccc(O)c(O)c1)O[C@H]1[C@@H](OC(=O)/C=C/c2ccc(O)c(O)c2)C[C@](O)(C(=O)O)C[C@@H]1O | 726 cpm | 78.4% | 8.1 (≈ 15.7 µM) | 4.4 (≈ 8.52 µM) | 30.5 pg/mL | Active | 5 (≈ 9.68 µM) | Dose-dependent effect | 1.25 (≈ 2.42 µM) | Dose-dependent effect
8 | O=C(O)/C=C/c1ccc(O)c(O)c1 | inactive | inactive |  |  | inactive | inactive |  |  |  | 
